The values below come from US10865207B2, “Compounds for imaging Tau protein aggregates” (AC IMMUNE S.A., priority 2016, dated 2020).

Data set [1] has as its system Tau (AD brain vs mouse brain homogenate). As to the kind of experiment: Tracer signal ratio, AD brain vs mouse brain homogenate. The class given is binding, human. Also on record: High signal to noise (grade), AD brain / mouse brain homogenate: key: −: poor; ∘: moderate; +: good; ++: very good; +++: excellent.
The target of data set [2] is T1, Tau in PiD brain sections (Homo sapiens, UniProt P10636).
T1 construct: frozen human brain slices; from tissue; host or cells: human PiD brain slices
Nature of the data set: Autoradiography on human PiD brain slices. The class given is binding. Here is the method:
(§1) 18 micron thick frozen human brain slices and 6 micron thick human FFPE brain slices were examined via autoradiography. Brain sections were equilibrated for at least 1 h in 1×PBS solution prior to use in the experiment. Each brain section was covered with a solution of the ^18F-labeled tracer (200 Bq/μl, 500 μl) in 1×PBS. For blocking experiments with the corresponding ^19F-compound, an excess of the blocking compound (10 μM) was mixed with the ^18F-compound. The brain sections were allowed to incubate with the tracer solution at room temperature for 1 h, drained afterwards and placed in a slide holder. The slides were then washed sequentially with 1×PBS for 1 min; 70% EtOH in 1×PBS for 2 min; 30% EtOH in 1×PBS for 2 min; and 1×PBS for 1 min. The slides were allowed to air-dry before being placed on Fuji imaging plates […] for overnight exposure. The imaging plates were scanned and the signal was measured using Fuji software to produce an autoradiographic image of the brain section.

In data set [3] the test system is Tau (AD brain homogenate vs healthy control brain homogenate). Nature of the data set: Tracer signal-to-noise ratio, AD brain homogenate vs healthy control brain homogenate. The class given is binding, human. Also on record: High signal to noise (grade), AD brain / HC brain homogenate / High signal to noise (further homogenates) (grade): key to the marks not given beside the values.

Data set [4] concerns the target T2, Tau in PSP brain sections (Homo sapiens, UniProt P10636).
T2 construct: frozen human brain slices; from tissue; host or cells: human PSP brain slices
As to the kind of experiment: Autoradiography on human PSP brain slices. The class given is binding. As to the method:
as §1

A further data set concerns Tau pathology. Nature of the data set: Human imaging study (PET in AD subjects and non-demented controls). The class given is in vivo. As to the method: In a clinical trial, subjects with AD as well as non-demented controls (NDC) underwent dynamic PET imaging for over 3 h following 370 MBq bolus injection of ^18F-4.
The next data set has as its target T3, MAO A (Homo sapiens, UniProt P21397).
T3 construct: 20 μg of human brain homogenate (without AD pathology); from tissue; host or cells: human brain homogenate without AD pathology
T3 sequence (P21397 1-527): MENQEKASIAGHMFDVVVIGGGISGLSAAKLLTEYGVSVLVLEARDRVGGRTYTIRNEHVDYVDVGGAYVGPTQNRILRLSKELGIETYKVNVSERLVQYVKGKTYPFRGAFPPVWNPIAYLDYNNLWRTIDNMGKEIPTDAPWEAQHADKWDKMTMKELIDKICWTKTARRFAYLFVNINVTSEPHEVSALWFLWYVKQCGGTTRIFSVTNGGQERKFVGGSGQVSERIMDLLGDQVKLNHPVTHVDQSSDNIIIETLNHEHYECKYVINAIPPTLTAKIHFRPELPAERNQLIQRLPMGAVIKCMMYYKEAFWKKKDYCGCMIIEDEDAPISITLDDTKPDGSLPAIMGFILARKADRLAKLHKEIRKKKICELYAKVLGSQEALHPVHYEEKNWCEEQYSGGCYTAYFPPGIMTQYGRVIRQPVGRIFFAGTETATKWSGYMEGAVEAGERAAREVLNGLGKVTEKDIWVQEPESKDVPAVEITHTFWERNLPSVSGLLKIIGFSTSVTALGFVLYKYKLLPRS
Nature of the data set: MAO A FEH competition assay in human HC brain homogenate. The class given is binding. Also on record: Low affinity to MAO A (grade), HC homogenate: key: −: poor; ∘: moderate; +: good; ++: very good; +++: excellent. The conditions noted are these: for IC50: human control brain homogenate, FEH competition, fluorine-19 derivatives. Here is the method: 20 μg of human brain homogenate (without AD pathology) was incubated with a dilution series of each test compound (1000 to 0.06 nM) in the presence of 800 Bq of ^18F-labeled MAO-A binder ([^18F]fluoroethyl harmine, FEH). The samples were shaken at 110 rpm for 45 min at 37° C. Samples were then filtered through GF/B 96 well filter plates and washed twice with 300 μL assay buffer (PBS containing 0.1% BSA and 2% DMSO). Thereafter, filter plates were sealed and a Fuji Film Imaging Plate (BAS-SR2025) was placed on top. The imaging plate was analyzed after overnight exposition using a Fuji Film BAS-5000. Non-specific signal was determined with samples containing ^18F-labeled FEH in the presence of assay buffer without brain substrate and competitor. […] The unblocked ^18F-labeled FEH signal was defined as total binding. IC50 values were calculated by Prism V6 (GraphPad) setting total binding to 100%.

Data set [5] in a line: Autoradiography on healthy control (HC) human brain slices. The class given is binding. Here is the method: as §1
Another data set relates to Tau in AD brain sections. Nature of the data set: Autoradiography on human AD brain slices. The class given is binding. As to the method:
as §1

Another data set addresses Tau (Homo sapiens, UniProt P10636). As to the kind of experiment: Competition binding to Tau in human AD brain homogenate with 18F-labeled Tau binder. As to high Tau binding (grade): key: −: poor; ∘: moderate; +: good; ++: very good; +++: excellent. The conditions noted are these: for IC50: human AD brain homogenate, determined with non-radioactive fluorine-19 derivatives. Also on record: High affinity to Tau (grade): key: −: poor; ∘: moderate; +: good; ++: very good; +++: excellent. Here is the method: 20 μg of human Alzheimer disease brain homogenate was incubated with a dilution series of each test compound (1000 to 0.06 nM) in the presence of 800 Bq of ^18F-labeled Tau binder. The samples were shaken at 110 rpm for 45 min at 37° C. Samples were then filtered through GF/B 96 well filter plates and washed twice with 300 μL assay buffer (PBS containing 0.1% BSA and 2% DMSO). Thereafter, filter plates were sealed and a Fuji Film Imaging Plate (BAS-SR2025) was placed on top. The imaging plate was analyzed after overnight exposition using a Fuji Film BAS-5000. Non-specific signal was determined with samples containing ^18F-labeled Tau-reference binder in the presence of assay buffer without brain substrate and competitor. […] The unblocked ^18F-labeled Tau-binder signal was defined as total binding. IC50 values were calculated by Prism V6 (GraphPad) setting total binding to 100%.

[6] abbreviates: further AD brain homogenate vs HC brain homogenate.

“Also recorded” adds a separate entry of the source. Marks after values point to notes of the source that are not given here. Bounds are passed on as bounds.

Chain of Tau (P10636 623-708 limits assumed): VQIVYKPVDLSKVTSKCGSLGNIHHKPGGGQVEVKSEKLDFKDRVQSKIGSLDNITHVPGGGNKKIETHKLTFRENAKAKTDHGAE
T2 sequence (P10636 1-441 isoform P10636-8): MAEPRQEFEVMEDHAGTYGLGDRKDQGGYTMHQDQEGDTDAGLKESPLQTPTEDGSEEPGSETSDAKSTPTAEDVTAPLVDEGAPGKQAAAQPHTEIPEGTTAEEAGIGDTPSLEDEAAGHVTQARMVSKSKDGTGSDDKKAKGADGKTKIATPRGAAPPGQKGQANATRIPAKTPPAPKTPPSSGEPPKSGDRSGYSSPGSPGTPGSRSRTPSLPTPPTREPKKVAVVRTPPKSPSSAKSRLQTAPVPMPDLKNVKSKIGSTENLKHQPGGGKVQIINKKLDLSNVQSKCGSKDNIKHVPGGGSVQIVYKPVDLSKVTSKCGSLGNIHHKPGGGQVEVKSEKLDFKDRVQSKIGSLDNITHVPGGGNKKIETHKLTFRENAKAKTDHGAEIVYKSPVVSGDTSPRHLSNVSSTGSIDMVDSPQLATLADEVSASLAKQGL
T1 sequence (P10636 1-410 isoform P10636-5): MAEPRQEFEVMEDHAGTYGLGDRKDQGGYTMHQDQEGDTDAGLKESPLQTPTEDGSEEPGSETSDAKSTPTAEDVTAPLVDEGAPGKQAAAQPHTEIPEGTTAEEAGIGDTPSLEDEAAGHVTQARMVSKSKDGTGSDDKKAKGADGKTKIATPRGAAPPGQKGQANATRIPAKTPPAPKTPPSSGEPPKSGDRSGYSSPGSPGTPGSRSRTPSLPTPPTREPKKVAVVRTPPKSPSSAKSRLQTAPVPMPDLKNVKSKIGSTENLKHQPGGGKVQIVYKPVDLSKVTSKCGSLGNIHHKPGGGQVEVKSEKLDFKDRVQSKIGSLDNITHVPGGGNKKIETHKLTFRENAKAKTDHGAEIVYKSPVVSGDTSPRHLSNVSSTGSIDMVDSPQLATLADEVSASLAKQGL

With `[18F]c1ncccc1-c1ccc2c(n1)[nH]c1ccncc12` [Compound ^18F-4], in data set [1] (18F tracer), the “Ratio of tracer signal AD brain / signal in mouse brain homogenate” value was 15.1^a). Further, in data set [1] (AD brain homogenate vs whole mouse brain homogenate), the “fold higher signal to noise ratio than 18F-1” value amounted to 6.9 fold. Further, the “High signal to noise (grade), AD brain / mouse brain homogenate” value in data set [1] (Table 1) was “+++”. In data set [2], the “Autoradiography signal in PiD brain sections (in words)” value was “strong signal”. The “Binding to PiD brain slices by autoradiography (grade)” value in data set [2] (in house data) is “+++^a)”. Also, the “fold higher signal to noise ratio than 18F-1” value in [3] (AD vs HC brain homogenate) came out at 7.7 fold. Further, in data set [3] (Table 1), the “High signal to noise (further homogenates) (grade)” value is “+++” and the “High signal to noise (grade), AD brain / HC brain homogenate” value is “+++”. Moreover, in data set [3] (setting [6]), the “fold higher signal to noise ratio than 18F-1” value was 7.2-11 fold and the “fold higher signal to noise ratio than 18F-2” value is listed as 3.7-4.0 fold. Besides, the “Autoradiography signal in PSP brain sections (in words)” value in data set [4] is given as “strong signal”. For the same compound, in [4] (in house data), the “Binding to PSP brain slices by autoradiography (grade)” value is listed as “+++^a)”. In addition, in the data set with Tau pathology (370 MBq bolus, dynamic PET), the “brain uptake in human subjects (in words)” value is “good brain uptake” and the “washout from non-target brain regions in human subjects (in words)” value was “fast washout”. In the data set with Tau pathology (AD subjects), the “uptake in AD subjects (in words)” value is “focal asymmetric uptake was evident in temporal, parietal and frontal lobes”. In addition, the “uptake in choroid plexus, basal ganglia, striatum, amygdala, meninges in non-demented controls (in words)” value in the data set on Tau pathology (NDC subjects) is recorded as “no increased uptake”. For the same compound, at MAO A (HC brain homogenate), the “fold higher MAO A IC50 than compound 18F-1” value was found to be 106 fold and the “fold higher MAO A IC50 than compound 18F-2” value worked out at 5 fold. Also, at MAO A (Table 1), the “Low affinity to MAO A (grade), HC homogenate” value is given as “++”. Also, the IC50 at MAO A was determined as 0.53 µM. In [5], the “Autoradiography signal in healthy control (HC) sections (in words)” value is on record as “no specific signal was visible”. In addition, in the data set on Tau in AD brain sections (blockable with excess cold compound), the “Autoradiography signal in AD brain sections (in words)” value is recorded as “strong punctated staining; also recorded: Specific binding”. Besides, in the data set on Tau in AD brain sections (in house data), the “Binding to AD brain (Braak stage 1/3) by autoradiography (grade)” value is reported as “+++^a)” and the “Binding to AD brain (Braak stage 5/6) by autoradiography (grade)” value is recorded as “+++^a)”. The “High affinity to Tau (grade)” value on Tau (Table 1, IC50 in AD brain homogenate, fluorine-19 derivatives) is given as “+++”. In addition, the IC50 on Tau was under 0.002 µM.

`Fc1ncccc1-c1ccc2c(n1)[nH]c1ccncc12` [Compound F-4]: the IC50 at MAO A was 0.53 µM; on Tau it was under 0.002 µM. The “high Tau binding (grade)” value on Tau (Table 2, fluorine-19 derivatives) is recorded as “+++”.
